Paper PMC11434796, “An Innovative Bio-Vehicle for Resveratrol and Tocopherol Based on Quinoa 11S Globulin—Nanocomplex Design and Characterization” (Pharmaceutics, 2024)

Molecular target: T1, quinoa 11S globulin (11S; chenopodin)
T1 construct: gene 11S globulin A; native, from defatted quinoa seed flour (seed origin Peru); alkaline extraction, pH 4.5 precipitation, size-exclusion FPLC; acidic (30-35 kDa) and basic (17-20 kDa) subunits disulfide-linked, about 55 kDa; isoform mixture not resolved; docking used amaranth 3qac as homologue
Experiment: isothermal titration calorimetry
Type: binding, Chenopodium quinoa
Conditions: distilled water pH 9, 25 °C, n 0.91
Excerpt: isothermal titration calorimetry on quinoa 11S globulin (11S; chenopodin)

## Oc1ccc(/C=C/c2cc(O)cc(O)c2)cc1 [RSV, 3,5,4′-trihydroxystilbene]
Protein 36.4 µM
  Kd: 48.2 ± 1 µM
Same titration as the Kd
  Ka (M^-1): (2.1 ± 0.3) × 10^4
